From patent publication US6689094B2, “Compound delivery using impulse transients” (priority 1996, dated 2004)

Test system: stratum corneum
Source text: For these experiments, a Q-switched solid state ruby laser (20 ns pulse duration, capable of generating up to 2 joules per pulse) was used to generate the laser beam, which hit the target material (black polystyrene sheet about 1 mm thick) and generated a single impulse transient. Impulse transients of up to 1000 bar peak stress and 50 ns duration and with a ½ inch beam diameter can be generated with this laser-target system. The large target ensures that the impulse transients generated are plane waves, because the thickness of the coupling medium is much shorter than the diameter of the impulse transient. An articulating arm was used and the laser path was totally covered for safety.
The washer was attached onto the skin with grease. The sample filled the central opening of the washer, which was approximately ¼ inch in diameter. The target material was positioned on top of the washer and irradiated with 1 laser pulse.
The black polystyrene target completely absorbed the laser radiation so that the skin was exposed only to impulse transients, and not laser radiation. […] The skin was monitored for fluorescence of protophyrin IX thirty minutes after exposure to the impulse transients.
All fluorescence measurements were compared to the fluorescence emission of the target site on the stratum corneum before the experiments.

Q: Which results are given for `NCC(=O)CCC(=O)O` [ALA, 5-aminolevulenic acid]?
A: time for which protophyrin IX fluorescence intensity increased until maximum intensity (5% ALA in PBS, single impulse transient, skin fluorescence): approximately 4 hours; protophyrin IX fluorescence when compound applied after the impulse transient (ALA applied on the same sites 5 minutes after impulse transients): no fluorescence emission from protophyrin IX was observed; time post-treatment at which the fluorescence peak at about 640 nm is highest (FIG. 1, single impulse transient): 210 min; change of skin fluorescence intensity over time without impulse transient (FIG. 2, adjacent control site, ALA applied without any impulse transients): little change in the intensity; dependence of transdermal transport on peak stress (FIG. 3, single impulse transient at 300, 400 or 600 bar): increases with increasing peak stress
